Test results from patent US20210300943A1, “OGA INHIBITOR COMPOUNDS” (Janssen Pharmaceutica NV, priority 2018, published 2021).

Target: T1, OGA (Homo sapiens, UniProt O60502)
T1 construct: endogenous in cells; host or cells: HEK293 cells inducible for P301L mutant human Tau (2N4R)
T1 sequence (O60502 1-916): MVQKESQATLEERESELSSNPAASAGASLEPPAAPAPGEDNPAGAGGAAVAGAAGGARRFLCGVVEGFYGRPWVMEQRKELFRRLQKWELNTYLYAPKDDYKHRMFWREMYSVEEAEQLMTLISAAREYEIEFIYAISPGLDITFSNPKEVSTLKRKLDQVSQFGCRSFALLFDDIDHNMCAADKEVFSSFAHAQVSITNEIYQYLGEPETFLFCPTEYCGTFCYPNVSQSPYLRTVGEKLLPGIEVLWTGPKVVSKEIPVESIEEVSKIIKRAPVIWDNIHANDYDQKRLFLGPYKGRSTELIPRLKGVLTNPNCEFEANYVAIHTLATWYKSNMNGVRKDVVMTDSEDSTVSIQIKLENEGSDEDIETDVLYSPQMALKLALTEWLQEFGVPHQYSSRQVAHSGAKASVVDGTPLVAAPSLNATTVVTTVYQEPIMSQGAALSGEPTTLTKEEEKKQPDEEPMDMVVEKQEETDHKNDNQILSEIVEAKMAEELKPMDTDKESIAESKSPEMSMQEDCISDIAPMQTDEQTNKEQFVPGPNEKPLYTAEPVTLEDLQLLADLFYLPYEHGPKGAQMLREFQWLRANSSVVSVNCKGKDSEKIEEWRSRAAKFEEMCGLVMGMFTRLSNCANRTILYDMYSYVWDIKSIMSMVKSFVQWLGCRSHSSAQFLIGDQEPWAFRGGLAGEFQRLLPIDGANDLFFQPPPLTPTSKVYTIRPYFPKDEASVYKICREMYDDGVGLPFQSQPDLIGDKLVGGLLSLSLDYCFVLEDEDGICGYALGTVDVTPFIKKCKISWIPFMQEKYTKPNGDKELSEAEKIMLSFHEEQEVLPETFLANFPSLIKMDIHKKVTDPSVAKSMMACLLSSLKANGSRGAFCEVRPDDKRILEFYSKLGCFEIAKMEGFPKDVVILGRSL
Test: OGA cellular assay (ICC detection of O-GlcNAcylated proteins in HEK293 cells inducible for P301L mutant human Tau)
Type: cell-based
Conditions: for EC50: 6 hours incubation, read-out: Cellular hOGA, pEC50 (converted)
How it was run: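 HEK293 cells inducible for P301L Tau, in low-glucose assay medium, treated 6 h with compound at 0.2% DMSO. O-GlcNAcylated proteins detected by CTD110.6 immunostaining, imaged at 488 nm with Hoechst nuclear counts for toxicity. IC50 from non-linear regression, 200 uM Thiamet G as maximum.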

[1] = HEK293 cells inducible for P301L mutant human Tau

Row | Structure (SMILES) | Emax (HEK293, HEK293 cells inducible for P301L mutant human Tau, maximal effect, Thiamet G 200 uM as maximum) | EC50 [1] | Cellular Emax (%) (HEK293 cells inducible for P301L mutant human Tau, maximal effect, Thiamet G 200 uM as maximum)
1 | Cc1cc([C@H]2CCCN(C(C)c3cnc4c(c3)OCCN4)C2)cc(C)n1 (single isomer, unassigned) [Product 135] | 68% | 25.1 nM | –
2 | Cc1cc(OC[C@H]2CCCN(C(C)c3nc4c(cc3F)OCCO4)C2)cc(C)n1 (single isomer, unassigned) [Product 155] | – | 2.57 nM | 95%
